Here are results for 15 molecules from US9062041B2 (Bayer Intellectual Property GmbH, priority 2011, dated 2015).

Test [1] has as its system cumulus-oocyte complexes. Briefly: Cumulus expansion test in vitro. Type of test: cell-based, mice (strain: B6D2F1). The following applies: for inhibition at 1 µM / inhibition at 0.5 µM: Mus musculus, 0.3 μM PGE2 for stimulation; for inhibition at 1 µM: read-out: % reduction at 1 μM (reduction in the cumulus expansion); for inhibition at 0.5 µM: read-out: % reduction at 0.5 μm (reduction in the cumulus expansion). The procedure:
4.2. Cumulus Expansions Test In Vitro In immature female mice (strain: B6D2F1 from Charles River), at an age of 14-18 days, the folliculogenesis was induced by a single administration (intraperitoneal) of 10 IU of PMSG (pregnant mare serum gonadotropin; Sigma G-4877, Lot 68H0909). 47-50 hours after the injection, the ovaries were removed and the cumulus-oocyte complexes removed. At this stage, the cumulus complex is not yet expanded. The cumulus-oocyte complexes were now incubated for 20-24 hours with prostaglandin E2 (PGE) (0.3 μM), vehicle control (ethanol) or test substances. Medium: alpha-MEM medium with 0.1 mM IBMX, pyruvate (0.23 mM), glutamine (2 mM), pen/strep 100 IU/ml pen. and 100 μg/ml strep.), HSA (8 mg/ml) and foetal bovine serum (FBS, 10%). The cumulus expansion was then established through the subdivision into four stages (after Vanderhyden et al. Dev Biol. 1990 August; 140(2):307-317).

Test [2] concerns the target T1, human PGD receptor (Homo sapiens, UniProt Q13258).
T1 sequence (Q13258 1-359): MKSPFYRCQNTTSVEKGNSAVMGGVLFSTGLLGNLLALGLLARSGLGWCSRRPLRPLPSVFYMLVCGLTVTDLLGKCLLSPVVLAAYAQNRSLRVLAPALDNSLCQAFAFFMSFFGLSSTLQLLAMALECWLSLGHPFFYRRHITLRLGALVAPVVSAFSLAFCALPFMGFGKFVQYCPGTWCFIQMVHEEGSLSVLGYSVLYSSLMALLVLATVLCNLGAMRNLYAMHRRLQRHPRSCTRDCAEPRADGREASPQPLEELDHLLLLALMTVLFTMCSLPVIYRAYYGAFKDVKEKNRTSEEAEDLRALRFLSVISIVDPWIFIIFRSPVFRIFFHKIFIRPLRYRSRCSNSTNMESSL
The test can be described thus: cAMP antagonism test on the human prostaglandin D receptor (HTRF cAMP detection). The format is cell-based. The following applies: selectivity towards hDP, IC50 measured by cAMP antagonism test. The essentials: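 HTRF competition read-out (665/620 nm ratio ×10000), where higher FRET means less cAMP, i.e. antagonism. Compounds (0.8 nM–16.5 μM) were preincubated 20 min at RT with cells and cAMP-d2, PGD2 (3× solution, 6 nM) in IBMX-containing PBS added for 30 min at RT, then cells lysed 20 min.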

Test [3] addresses EP4 subtype of the human PGE2 receptor (Homo sapiens, UniProt P35408). The test can be described thus: cAMP antagonism test on the human EP4 receptor (HTRF cAMP detection). The format is cell-based. The following applies: selectivity towards hEP4, IC50 measured by cAMP antagonism test. The essentials:
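Competitive HTRF cAMP read-out (cAMP-d2 vs Eu-cryptate anti-cAMP antibody, 665/620 nm ratio) on lysed human EP4 cells. Compound (0.8 nM–16.5 μM) applied 20 min at RT before 60 min PGE2 challenge (3× solution 0.3 nM, IBMX present); 20 min lysis precedes reading.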

In test [4] the target is EP2 subtype of the human PGE2 receptor (Homo sapiens, UniProt P43116). The test can be described thus: cAMP antagonism test on the human EP2 receptor (HTRF cAMP detection). The format is cell-based. The following applies: hEP2 receptor, read-out: Antagonism hEP2 IC50. In a few lines:
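Read-out is a competitive HTRF for cAMP: lysate cAMP displaces cAMP-d2 from Eu cryptate-labelled antibody, and antagonism raises the 665/620 nm ratio. Compound (0.8 nM–16.5 μM) added to EP2 cells 20 min at RT before 60 min PGE2 challenge (3× stock 1.5 nM) with IBMX, followed by 20 min lysis.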
On the technique in general: TR-FRET usually uses a lanthanide donor and a delayed reading to cut background.

SMILES strings stand for the structures.

The term IC50 denotes the concentration at which inhibition is half-maximal.

Sequence of EP4 subtype of the human PGE2 receptor (P35408 whole entry): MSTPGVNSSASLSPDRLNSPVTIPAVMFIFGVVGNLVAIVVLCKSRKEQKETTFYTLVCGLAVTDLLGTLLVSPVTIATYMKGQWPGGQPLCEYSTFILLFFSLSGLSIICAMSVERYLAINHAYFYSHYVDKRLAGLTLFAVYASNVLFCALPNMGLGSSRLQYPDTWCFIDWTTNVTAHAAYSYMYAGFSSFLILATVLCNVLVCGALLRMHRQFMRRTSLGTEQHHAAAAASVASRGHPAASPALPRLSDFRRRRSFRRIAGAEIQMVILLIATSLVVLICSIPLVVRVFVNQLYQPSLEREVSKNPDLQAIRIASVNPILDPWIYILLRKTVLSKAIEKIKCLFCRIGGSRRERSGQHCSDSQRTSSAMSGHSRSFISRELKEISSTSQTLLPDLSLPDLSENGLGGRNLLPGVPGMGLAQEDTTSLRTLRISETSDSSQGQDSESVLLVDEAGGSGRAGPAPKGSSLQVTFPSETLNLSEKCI
Sequence of EP2 subtype of the human PGE2 receptor (P43116 whole entry): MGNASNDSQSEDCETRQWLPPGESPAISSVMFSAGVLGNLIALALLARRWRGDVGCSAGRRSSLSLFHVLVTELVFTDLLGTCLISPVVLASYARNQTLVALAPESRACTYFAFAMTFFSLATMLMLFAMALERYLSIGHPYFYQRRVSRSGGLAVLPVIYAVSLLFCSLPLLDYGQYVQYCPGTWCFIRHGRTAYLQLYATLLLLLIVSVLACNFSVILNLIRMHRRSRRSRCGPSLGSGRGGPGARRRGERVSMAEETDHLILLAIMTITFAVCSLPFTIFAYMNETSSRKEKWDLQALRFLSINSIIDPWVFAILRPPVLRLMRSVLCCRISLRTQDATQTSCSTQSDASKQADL

As for `CC(C)Oc1ccc2c(=O)c3cc(C(=O)O)ccc3oc2c1` [AH6809, reference compound], the “suppression of the cumulus expansion” value in test [1] (concentration of 100-200 μM, PGE2 0.3 μM) is recorded as “ca. 30%”.

For the molecule `Cc1c(C(=O)NCC(F)(F)F)ccc2nn(CC3CCN(C(=O)c4ccc(Oc5ccc(C(F)(F)F)cc5)cc4)CC3)cc12` [Example 291, 4-methyl-N-(2,2,2-trifluoroethyl)-2-[(1-{4-[4-(trifluoromethyl)phenoxy]-benzoyl}piperidin-4-yl)methyl]-2H-indazol-5-carboxamide], in test [2], the “Selectivity hEP2/hDP” value is given as “xxx (xxx > 100)”. Besides, the “Selectivity hEP2/hEP4” value in test [3] is “xxx (xxx > 100)”. Besides, in test [1], the inhibition at 1 µM turned out to be 73% and the inhibition at 0.5 µM amounted to 76%. In test [4], the 50% inhibitory concentration (IC50) worked out at 5.94 nM.

`COCCNC(=O)c1ccc2nn(CC3CCN(C(=O)c4ccc(-c5ccc(F)cc5)cc4)CC3)cc2c1C` [Example 5, 2-({1-[(4′-fluorobiphenyl-4-yl)carbonyl]piperidin-4-yl}methyl)-N-(2-methoxy-ethyl)-4-methyl-2H-indazol-5-carboxamide]: in test [2], the “Selectivity hEP2/hDP” value is on record as “xxx (xxx > 100)”. The “Selectivity hEP2/hEP4” value in test [3] is on record as “xxx (xxx > 100)”. In test [1], the inhibition at 1 µM was 59% and the inhibition at 0.5 µM amounted to 56%. In addition, the IC50 in test [4] amounted to 5.11 nM.

`Cc1c(C(=O)NCC(F)(F)F)ccc2nn(CC3CCN(C(=O)c4ccc(Oc5ccc(C(F)(F)F)nc5)cc4)CC3)cc12` [Example 303, 4-methyl-N-(2,2,2-trifluoroethyl)-2-{[1-(4-{[6-(trifluoromethyl)pyridin-3-yl]-oxy}benzoyl)piperidin-4-yl]methyl}-2H-indazol-5-carboxamide]: the “Selectivity hEP2/hDP” value in test [2] was “xxx (xxx > 100)”. Besides, the “Selectivity hEP2/hEP4” value in test [3] was “xxx (xxx > 100)”. For the same molecule, in test [1], the inhibition at 1 µM turned out to be 47% and the inhibition at 0.5 µM was 38%. Further, the IC50 in test [4] turned out to be 13.9 nM.

Take `COc1ccc2cc(C(=O)N3CC(Cn4cc5c(C)c(C(=O)NCC(F)(F)F)ccc5n4)C3)n(C)c2c1` [Example 169, 2-({1-[(6-methoxy-1-methyl-1H-indol-2-yl)carbonyl]azetidin-3-yl}methyl)-4-methyl-N-(2,2,2-trifluoroethyl)-2H-indazol-5-carboxamide]: the “Selectivity hEP2/hDP” value in test [2] is reported as “xxx (xxx > 100)”. In addition, the “Selectivity hEP2/hEP4” value in test [3] was “xxx (xxx > 100)”. In addition, the half-maximal inhibitory concentration (IC50) in test [4] is 27.7 nM.

As for `COCCNC(=O)c1ccc2nn(CC3CCN(C(=O)c4ccc(Oc5ccc(F)cc5)cc4)CC3)cc2c1C` [Example 3, 2-({1-[4-(4-fluorophenoxy)benzoyl]piperidin-4-yl}methyl)-N-(2-methoxyethyl)-4-methyl-2H-indazol-5-carboxamide], the “Selectivity hEP2/hDP” value in test [2] was “xxx (xxx > 100)”. In addition, the “Selectivity hEP2/hEP4” value in test [3] was “xxx (xxx > 100)”. Besides, the IC50 in test [4] came to 4.91 nM.

With `COCCNC(=O)c1ccc2nn(CC3CCN(C(=O)c4ccc(-c5ccc(C(C)(C)O)cc5)cc4)CC3)cc2c1C` [Example 388, 2-[(1-{[4′-(1-hydroxy-1-methylethyl)biphenyl-4-yl]carbonyl}piperidin-4-yl)-methyl]-N-(2-methoxyethyl)-4-methyl-2H-indazol-5-carboxamide], in test [2], the “Selectivity hEP2/hDP” value is “xxx (xxx > 100)”. For the same molecule, the “Selectivity hEP2/hEP4” value in test [3] was “xxx (xxx > 100)”. Also, the IC50 in test [4] stood at 20.5 nM.

As to `CCOCCNC(=O)c1ccc2nn(CC3CCN(C(=O)c4ccc(Cl)cc4)CC3)cc2c1OC` [Example 264, 2-{[1-(4-chlorobenzoyl)piperidin-4-yl]methyl}-N-(2-ethoxyethyl)-4-methoxy-2H-indazol-5-carboxamide], the “Selectivity hEP2/hDP” value in test [2] is “xxx (xxx > 100)”. For the same molecule, in test [3], the “Selectivity hEP2/hEP4” value is “xxx (xxx > 100)”. For the same molecule, the IC50 in test [4] is 13.7 nM.

Consider `Cc1c(C(=O)NCC2COCCO2)ccc2nn(CC3CCN(C(=O)c4ccc(Oc5ccc(C(F)(F)F)cc5)cc4)CC3)cc12` (single isomer, unassigned) [Example 419, (R or S)—N-(1,4-dioxan-2-ylmethyl)-4-methyl-2-[(1-{4-[4-(trifluoromethyl)-phenoxy]benzoyl}piperidin-4-yl)methyl]-2H-indazol-5-carboxamide], for which the “Selectivity hEP2/hDP” value in test [2] was “xxx (xxx > 100)”. The “Selectivity hEP2/hEP4” value in test [3] is listed as “xxx (xxx > 100)”. For the same molecule, in test [4], the IC50 stood at 10.9 nM.

With `Cc1c(C(=O)NCCOC2CC2)ccc2nn(CC3CN(C(=O)c4ccc(OC(F)(F)F)cc4)C3)cc12` [Example 136, N-[2-(cyclopropyloxy)ethyl]-4-methyl-2-({1-[4-(trifluoromethoxy)benzoyl]azetidin-3-yl}methyl)-2H-indazol-5-carboxamide], the “Selectivity hEP2/hDP” value in test [2] is recorded as “xxx (xxx > 100)”. The “Selectivity hEP2/hEP4” value in test [3] was “xxx (xxx > 100)”. Moreover, the IC50 in test [4] came out at 6.59 nM.

As for `COCCNC(=O)c1cc2cn(CC3CCN(C(=O)c4cn(C)c5ccccc45)CC3)nc2cc1C` [Example 281, N-(2-methoxyethyl)-6-methyl-2-({1-[(1-methyl-1H-indol-3-yl)carbonyl]-piperidin-4-yl}methyl)-2H-indazol-5-carboxamide], in test [2], the “Selectivity hEP2/hDP” value is “xxx (xxx > 100)”. The “Selectivity hEP2/hEP4” value in test [3] was “xxx (xxx > 100)”. Further, the IC50 in test [4] was 23 nM.

On to `Cc1c(C(=O)NCCOC(C)(C)C)ccc2nn(CC3CCN(C(=O)c4ccc(Cl)cc4)CC3)cc12` [Example 111, N-(2-tert-butoxyethyl)-2-{[1-(4-chlorobenzoyl)piperidin-4-yl]methyl}-4-methyl-2H-indazol-5-carboxamide], for which the “Selectivity hEP2/hDP” value in test [2] is recorded as “xxx (xxx > 100)”. Besides, the “Selectivity hEP2/hEP4” value in test [3] is “xxx (xxx > 100)”. The IC50 in test [4] stood at 13.7 nM.

As to `Cc1c(C(=O)NCC(F)(F)F)ccc2nn(CC3CCN(C(=O)c4cc5ccccc5n4C)CC3)cc12` [Example 290, 4-methyl-2-({1-[(1-methyl-1H-indol-2-yl)carbonyl]piperidin-4-yl}methyl)-N-(2,2,2-trifluoroethyl)-2H-indazol-5-carboxamide], the “Selectivity hEP2/hDP” value in test [2] is on record as “xxx (xxx > 100)”. Moreover, the “Selectivity hEP2/hEP4” value in test [3] is “xxx (xxx > 100)”. Besides, the IC50 in test [4] came to 42.6 nM.

As to `Cc1c(C(=O)NCC(F)(F)F)ccc2nn(CC3CCN(C(=O)c4ccc(OC(F)(F)F)cc4)CC3)cc12` [Example 73, 4-methyl-N-(2,2,2-trifluoroethyl)-2-({1-[4-(trifluoromethoxy)benzoyl]piperidin-4-yl}methyl)-2H-indazol-5-carboxamide], the “Selectivity hEP2/hDP” value in test [2] is given as “xxx (xxx > 100)”. The “Selectivity hEP2/hEP4” value in test [3] is reported as “xxx (xxx > 100)”. Besides, the IC50 in test [4] amounted to 77.8 nM.

Take `Cc1c(C(=O)NCC2COCCO2)ccc2nn(CC3CN(C(=O)c4ccc(Oc5ccc(F)cc5)cc4)C3)cc12` (racemic) [Example 148, (+/−)-N-(1,4-dioxan-2-ylmethyl)-2-({1-[4-(4-fluorophenoxy)benzoyl]azetidin-3-yl}methyl)-4-methyl-2H-indazol-5-carboxamide]: in test [2], the “Selectivity hEP2/hDP” value is “xxx (xxx > 100)”. The “Selectivity hEP2/hEP4” value in test [3] was “xxx (xxx > 100)”. Moreover, the IC50 in test [4] stood at 27.4 nM.
